Like-named read-outs stand apart in the source and are kept apart here.
Legend:
[1] = target: T1, PDIA4 (Homo sapiens, UniProt P13667); test: biochemical;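 also: enzymatic activity of PDIA4 read as absorbance at 595 nm, inhibition given as percent decrease relative to vehicle-treated control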
T1 sequence (P13667 21-645): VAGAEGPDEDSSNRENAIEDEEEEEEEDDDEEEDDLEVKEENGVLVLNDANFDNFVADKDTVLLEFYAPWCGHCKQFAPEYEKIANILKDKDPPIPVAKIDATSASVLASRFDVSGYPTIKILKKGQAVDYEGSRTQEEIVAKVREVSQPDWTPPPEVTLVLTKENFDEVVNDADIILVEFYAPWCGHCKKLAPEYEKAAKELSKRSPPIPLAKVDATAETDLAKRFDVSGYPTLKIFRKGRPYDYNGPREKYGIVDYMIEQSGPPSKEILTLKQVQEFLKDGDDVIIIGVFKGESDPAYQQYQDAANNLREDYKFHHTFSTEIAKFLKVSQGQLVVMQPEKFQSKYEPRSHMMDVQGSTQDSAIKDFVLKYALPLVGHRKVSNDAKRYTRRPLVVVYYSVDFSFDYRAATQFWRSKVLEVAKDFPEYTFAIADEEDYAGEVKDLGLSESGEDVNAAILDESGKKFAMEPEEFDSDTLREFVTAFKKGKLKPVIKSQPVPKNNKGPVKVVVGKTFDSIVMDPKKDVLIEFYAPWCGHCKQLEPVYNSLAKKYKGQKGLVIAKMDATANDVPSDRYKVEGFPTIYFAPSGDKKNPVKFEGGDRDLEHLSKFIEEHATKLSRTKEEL
Method: Recombinant PDI proteins PDIA4 (23 pM) was incubated with insulin (0.2 mM) and DTT (0.1 mM) in the presence of vehicle and compounds at the indicated doses for 30 min at 25° C. The mixture was, measured using a SpectraMax i3x reader at 595 nm based on the manufacturer's instructions (Molecular device, CA, USA). Inhibition of the enzymatic activity PDIA4 is calculated by the formula, 100%×(OD595 of vehicle−OD595 of CP)/(OD595 of vehicle) as published previously.

[2] = Cell viability test (WST-1) in Min6 cells; assay type: cell-based, mouse; settings: mouse
Method: (§1) (A) Effect of drug candidates on insulin secretion in β-cells. Min6 cells were incubated in serum-free oxygen-saturated Krebs-Ringer bicarbonate (KRB) buffer containing high glucose (16.7 mM), CCF642 and drug candidates for 30 min. The supernatants were collected for insulin ELISA assay. (B) Min6 cells were incubated with PBS, CCF642 and drug candidates, respectively, for 24 h. Following PBS washing, WST-1 was added into each well for additional 20 min incubation.
Min6 cells were cultured at 37° C. in complete medium. Cell cytotoxicity was determined using WST-1 (4-[3-(4-Iodophenyl)-2-(4-nitrophenyl)-2H-5-tetrazolio]-1,3-benzene Disulfonate) according to the manutkturet's guidelines. Briefly, the cells were grown in a […] containing complete medium in the presence of the indicated compounds for 24 h. Following PBS washing, WST-1 was added into each well for additional 20 min incubation. After removing the medium, the cells in the plate were measured with a SpectraMax i3x reader at 450 nm.

[3] = system: Min6 cells; test: Glucose-stimulated insulin secretion in Min6 cells (insulin ELISA); assay type: cell-based, mouse; settings: for insulin secretion in β-cells, in words: Min6 β-cells
Method: as §1
Min6 cells were grown in complete Dulbecco's modified Eagle medium (DMEM) medium containing 10% fetal bovine serum, 100 units/ml penicillin and 100 µg/ml streptomycin in a 5% CO2 incubator in the presence of 3.3 mM glucose unless indicated otherwise. Min6 cells were pre-incubated in serum-free oxygen-saturated Krebs-Ringer bicarbonate (KRB) buffer containing 3.3 mM glucose at 37° C. for 30 min. The cells (7.5×10^4) were then incubated with KRB buffer containing high glucose (16.7 mM) or low glucose (3.3 mM) for an additional 30 min. The supernatants were collected for insulin ELISA assay.

[4] = Table 5, 24 h, WST-1, read-out: CC50
[5] = Min6, a mouse β-cells, read-out: EC50 values, insulin-releasing action
[6] = Mus musculus, 0.5 h, Table 5, insulin secretion, Min6 cells, high glucose (16.7 mM), 30 min, read-out: EC50

Row | Compound | IC50 [1] | further results
1 | C#CC(=O)Nc1cc(OC)c(OCCCN2C(=O)c3ccccc3C2=O)cc1C(=O)OC [50b, methyl 5-(3-(1,3-dioxoisoindolin-2-yl)propoxy)-4-methoxy-2-propiolamidobenzoate] | 4.3 µM | –
2 | C#CC(=O)Nc1cc(OC)c(OCCCN(C(=O)C#C)C(=O)c2ccccc2F)cc1C(=O)OC [58b, methyl 5-(3-(2-fluoro-N-propioloylbenzamido)propoxy)-4-methoxy-propiolamidobenzoate] | 4.2 µM | –
3 | C#CC(=O)Nc1cc(OC)c(OCCCN(C(=O)C#C)C(=O)c2ccc(F)cc2)cc1C(=O)OC [58d, methyl 5-(3-(4-fluoro-N-propioloylbenzamido)propoxy)-4-methoxy-2-propiolamidobenzoate] | 2.4 µM | –
4 | C#CC(=O)Nc1cc(OC)c(OCCCN(C(=O)C#C)C(=O)c2cccc(OC)c2)cc1C(=O)OC [58g] | 3.3 µM | –
5 | C#CC(=O)Nc1cc(OC)c(OCCCN(C(=O)C#C)C(=O)Cc2ccccc2)cc1C(=O)OC [58i, methyl 4-methoxy-5-(3-(N-(2-phenylacetyl)propiolamido)propoxy)-2-propiolamidobenzoate] | 1.9 µM | –
6 | C#CC(=O)Nc1cc(OC)c(OCCCN(C(=O)C#C)C(=O)Cc2ccc(F)cc2)cc1C(=O)OC [58l] | 1.4 µM | –
7 | C#CC(=O)Nc1cc(OC)c(OCCCN(C(=O)C#C)C(=O)Cc2cccc(OC)c2)cc1C(=O)OC [58n, methyl 4-methoxy-5-(3-(N-(2-(3-methoxyphenyl)acetyl)propiolamido)propoxy)-2-propiolamidobenzoate] | 1.4 µM | –
8 | C#CC(=O)Nc1cc(OC)c(OCCCN(C(=O)C#C)C(=O)Cc2ccc(OC)cc2)cc1C(=O)OC [58o, methyl 4-methoxy-5-(3-(N-(2-(4-methoxyphenyl)acetyl)propiolamido)propoxy)-2-propiolamidobenzoate] | 2.1 µM | –
9 | C#CC(=O)Nc1cc(OC)c(OCCCN(C(=O)C#C)C(=O)Cc2cccc(Cl)c2)cc1C(=O)OC [58r, methyl 5-(3-(N-(2-(3-chlorophenyl)acetyl)propiolamido)propoxy)-4-methoxy-2-propiolamidobenzoate] | 1.6 µM | –
10 | C#CC(=O)Nc1cc(OC)c(OCCCN(C(=O)C#C)C(=O)Cc2ccccc2C(F)(F)F)cc1C(=O)OC [58s, methyl 4-methoxy-2-propiolamido-5-(3-(N-(2-(2-(trifluoromethyl)phenyl)acetyl)propiolamido)propoxy)benzoate] | – | CC50 at 24 h [2, 4]: 64.9 µM; CC50 at 24 h ([2]; read-out: CC50 values): > 100 µM; EC50 [3, 5]: 0.03 µM; insulin secretion in β-cells, in words [3]: could augment insulin secretion; EC50 [3, 6]: 0.02 µM
11 | C#CC(=O)Nc1cc(OC)c(OCCCN(C(=O)C#C)C(=O)Cc2cccc(C(F)(F)F)c2)cc1C(=O)OC [58t, methyl 4-methoxy-2-propiolamido-5-(3-(N-(2-(3-(trifluoromethyl)phenyl)acetyl)propiolamido)propoxy)benzoate] | 0.8 µM | CC50 at 24 h [2, 4]: > 100 µM; CC50 at 24 h ([2]; read-out: CC50 values): 64.9 µM; EC50 [3, 5]: 0.02 µM; insulin secretion in β-cells, in words [3]: could augment insulin secretion; EC50 [3, 6]: 0.03 µM; SI (CC50/EC50) ([3]; Table 5, Min6 cells): >3333
12 | CC#CC#C/C=C1/C=CC(=O)O1 [C2, (Z)-5-(hexa-2,4-diyn-1-ylidene)furan-2(5H)-one] | 96.5 µM | –
13 | C#CC(=O)N(c1ccc(OC)cc1OC)C(C(=O)NCC(=O)OCC)c1cccs1 (stereo not shown) [C5, ethyl (2-(N-(2,4-dimethoxyphenyl)propiolamido)-2-(thiophen-2-yl)acetyl)glycinate] | 760 µM | –
14 | CC#CC#C/C=C1\C=CC2(OC=CC2OC(=O)C=C(C)C)O1 (stereo not shown) [C6, (E)-7-(hexa-2,4-diyn-1-ylidene)-1,6-dioxaspiro[4,4]nona-2,8-dien-4-yl 3-methylbut-2-enoate] | 753 µM | –
15 | OCC#CC(O)c1ccccc1 (stereo not shown) [C7, 1-phenylbut-2-yne-1,4-diol] | > 1000 µM | –
16 | CC#CCNc1ccc(NC(C)=O)cc1 [C8, N-(4-(but-2-yn-1-ylamino)phenyl)acetamide] | > 1000 µM | –
17 | O=C(Cc1ccccc1)OCC#CC#CCOC(=O)Cc1ccccc1 [C9, hexa-2,4-diyne-1,6-diyl bis(2-phenylacetate)] | > 1000 µM | –
18 | O=C(OCC#CC#CCOC(=O)c1ccccc1)c1ccccc1 [C10, hexa-2,4-diyne-1,6-diyl dibenzoate] | > 1000 µM | –
19 | C#CC(=O)Nc1ccc(C(=O)NCC(=O)O)cc1 [C11, (4-propiolamidobenzoyl)glycine] | 27.6 µM | –
20 | C#CC(=O)Nc1ccc(CC(=O)O)cc1 [C12, 2-(4-propiolamidophenyl)acetic acid] | 92.1 µM | –

Row | Compound | IC50 [1] | further results
21 | C#CC(=O)Nc1ccc(O)c(C(=O)O)c1 [C14, 2-hydroxy-5-propiolamidobenzoic acid] | 55.7 µM | –
22 | CC#CC#CC#CC#CCCC(O)CO (stereo not shown) [CPD P2, cytopiloyne aglycone, reference compound] | 168 µM | –
23 | COC(=O)c1cc(OC)c(OC)cc1N [compound 3, methyl 2-amino-4,5-dimethoxybenzoate] | > 1000 µM | –
24 | C#CC(=O)Nc1cc(OC)c(OC)cc1C(=O)OCC[Si](C)(C)C [compound 7, 2-(trimethylsilyl)ethyl 4,5-dimethoxy-2-propiolamidobenzoate] | 78.7 µM | –
25 | COc1cc(N)c(C(=O)O)cc1OC [compound 9, 2-amino-4,5-dimethoxybenzoic acid] | > 1000 µM | –
26 | C#CC(=O)OC(=O)c1cc(OC)c(OC)cc1N [compound 10, 2-amino-4,5-dimethoxybenzoic propiolic anhydride] | 1.6 µM | –
27 | C#CC(=O)OC(=O)c1cc(OCc2ccccc2)c(OC)cc1N [compound 16, 2-amino-5-(benzyloxy)-4-methoxybenzoic propiolic anhydride] | 13.3 µM | –
28 | COC(=O)c1cc(OC)c(OC)c(OC)c1N [compound 19, methyl 2-amino-3,4,5-trimethoxybenzoate] | > 1000 µM | –
29 | C#CC(=O)Nc1c(C(=O)OC)cc(OC)c(OC)c1OC [compound 20, methyl 3,4,5-trimethoxy-2-propiolamidobenzoate] | 42.5 µM | –
30 | COc1cc(C(=O)O)c(N)c(OC)c1OC [compound 21, 2-amino-3,4,5-trimethoxybenzoic acid] | > 1000 µM | –
31 | C#CC(=O)OC(=O)c1cc(OC)c(OC)c(OC)c1N [compound 22, 2-amino-3,4,5-trimethoxybenzoic propiolic anhydride] | 4.3 µM | –
32 | C#CC(=O)Nc1cc(OCCC)c(OCCC)cc1C(=O)OC [compound 29, methyl 2-propiolamido-4,5-dipropoxybenzoate] | > 300 µM | –
33 | C#CC(=O)Nc1cc(OCCC)c(OCCC)cc1C(=O)OCCC [compound 30, propyl 2-propiolamido-4,5-dipropoxybenzoate] | > 300 µM | –
34 | C#CC(=O)Nc1cc(OC)c(OCCCN(C(=O)C#C)C(=O)c2ccccc2)cc1C(=O)O [compound 40, 4-methoxy-2-propiolamido-5-(3-(N-propioloylbenzamido)propoxy)benzoic acid] | 3.9 µM | –
35 | C#CC(=O)Nc1cc(OC)c(OCCC)cc1C(=O)OCCC [compound 43, propyl 4-methoxy-2-propiolamido-5-propoxybenzoate] | 431 µM | –
36 | CCCOc1cc(C(=O)O)c(N)cc1OC [compound 44, 2-amino-4-methoxy-5-propoxybenzoic acid] | > 1000 µM | –
37 | C#CC(=O)OC(=O)c1cc(OCCC)c(OC)cc1N [compound 45, 2-amino-4-methoxy-5-propoxybenzoic propiolic anhydride] | 1 µM | –
38 | COC(=O)c1cc(OCCCN)c(OC)cc1[N+](=O)[O-] [compound 55, methyl 5-(3-aminopropoxy)-4-methoxy-2-nitrobenzoate] | > 1000 µM | –
39 | C#CC(=O)Nc1cc(OC)c(OCCCNC(=O)OC(C)(C)C)cc1C(=O)OC [compound 61, Methyl 5-(3-((tert-butoxycarbonyl)amino)propoxy)-4-methoxy-2-propiolamidobenzoate] | 4.7 µM | –
